Molecular target: T1, PPAR γ (Homo sapiens, UniProt P37231)
T1 construct: expressed in transfected cells; host or cells: HEK293EBNA
T1 sequence (P37231 174-475 isoform P37231-2): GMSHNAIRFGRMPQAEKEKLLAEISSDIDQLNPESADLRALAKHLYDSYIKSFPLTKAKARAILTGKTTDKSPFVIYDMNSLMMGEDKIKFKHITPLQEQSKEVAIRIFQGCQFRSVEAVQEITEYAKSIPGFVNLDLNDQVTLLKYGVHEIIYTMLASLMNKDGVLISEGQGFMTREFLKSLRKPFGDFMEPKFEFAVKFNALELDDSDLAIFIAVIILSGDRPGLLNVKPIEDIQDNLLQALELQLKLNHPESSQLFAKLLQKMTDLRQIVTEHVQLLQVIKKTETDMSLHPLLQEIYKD
Assay: PPAR γ activation action based on transactivation assay of PPAR γ by transient gene transfer (GAL4-PPAR γ chimeric receptor, luciferase reporter, HEK293EBNA cells)
Assay type: cell-based
Settings: concentration showing 50% of the compound's own efficacy (maximum activity rate relative to pioglitazone 10 μmol/L = 100%), 24 hr
Method: The agonist activity of compound (I) to PPAR γ was determined by a transactivation assay method using a chimeric nuclear receptor of a DNA binding region of a yeast transcription factor GAL4 and a PPAR γ ligand binding region. Specifically, the PPAR γ agonist activity of compound (I) was evaluated by the following method based on the method of Lehmann et al. (J Biol Chem., 1995, vol. 270, page 12953).
HEK293EBNA cells cultured in Dulbecco's Modified Eagle medium (Invitrogen) containing 10 v/v % fetal calf serum (Invitrogen) were used. 30 mL of the above-mentioned cells (density: 1×10^5 cells/mL) were inoculated in a […] (Iwaki Glass), and cultured overnight. Using SuperFect Transfection Reagent (QIAGEN), a plasmid expressing a GAL4-PPAR γ chimeric nuclear receptor fusing 174-475 amino acids, which are human PPAR γ ligand binding region, and 1-147 amino acids, which are GAL4 DNA binding region, and a reporter plasmid expressing a GAL4 responsive luciferase were transiently introduced into the cells at a proportion of 4:1. After 5 hr from transfection, the cells were detached from the culture dish, and the detached cells (density: 2×10^4 cells/mL) were inoculated by 100 μL in each well of a 96 well white plate (SUMITOMO BAKELITE), and cultured overnight. The medium was removed, compound (I) diluted in various concentrations with serum-free Dulbecco's Modified Eagle medium was added by 100 μL, and the mixture was reacted under a 5% carbon dioxide gas stream (5% CO2) at 37° C. for 24 hr. On the other hand, as a positive control, 10 μmol/L of pioglitazone (100 μL) was added, and the mixture was reacted under a 5% carbon dioxide gas stream (5% CO2) at 37° C. for 24 hr. As a substrate of luciferase, 100 μL of Steady-Glo (Promega) was added to each well and the mixture was thoroughly stirred. Immediately thereafter, the chemical luminescence due to luciferase was measured using TopCount NTX (Packard).
The agonist activity (activity rate (%)) of compound (I) to PPAR γ was calculated according to the following formula, as a relative activity when the agonist activity on addition of pioglitazone (10 μmol/L) was 100%.

Row | EC50 [nM] | SMILES
1 | 12 | CCCc1nc2ccccc2n1Cc1ccc2c(c1)COc1ccc(F)cc1/C2=C(\C)c1noc(=O)[nH]1 [Compound 116, (E)-2-Fluoro-8-(2-propylbenzimidazol-1-yl)methyl-11-[1-(5-oxo-4,5-dihydro-1,2,4-oxadiazol-3-yl)ethylidene]-6,11-dihydrodibenzo[b,e]oxepine]
2 | 314 | C/C(=C1\c2ccccc2OCc2nc(Cn3c(C4CC4)nc4c(Cl)ccnc43)ccc21)c1noc(=O)[nH]1 [Compound 119, (E)-2-(7-Chloro-2-cyclopropyl-3H-imidazo[4,5-b]pyridin-3-yl)methyl-5-[1-(5-oxo-4,5-dihydro-1,2,4-oxadiazol-3-yl)ethylidene]-5,11-dihydrobenzooxepino[3,4-b]pyridine]

Source: patent US9475805B2, “Tricyclic compound” (Kyowa Hakko Kirin Co., Ltd., priority 2008, dated 2016)
